Measurements as given in US20240246950A1, “Anilino-Pyrazole Derivatives, Compositions and Methods Thereof” (Ensem Therapeutics, priority 2022, published 2024).

How the values were obtained:
Type in all cases: biochemical
GSK3β = GSK3β (Homo sapiens, UniProt P49841); assay: In vitro kinase TR-FRET assay GSK3β; settings: enzyme 0.6 nM, ATP 7.6 μM
Experimental: (§1) In vitro kinase TR-FRET assays: CDK2/CycA2, CDK2/CycE1, CDK1/cyclinB and GSK3β
(§2) The test compounds were prepared as 10 mM stock solution in 100% DMSO. The stock solution was then serially diluted 3-fold in 100% DMSO to 10 concentrations. 200 nL of each diluted compound solution was transferred to 384-well plate in duplicate. To each well, 5 uL of enzyme and ATP mixture solution containing enzyme CDK2/CycA2, CDK2/CycE1, CDK1/cyclinB, or GSK30 (final concentrations 3 nM, 0.6 nM, 0.3 nM, 0.6 nM, respectively) and ATP (final concentrations 27 μM, 82 μM, 56 μM, 7.6 μM, respectively) in the assay buffer (50 mM HEPES, pH7.5, 10 mM MgCl2, 1 mM DTT, 0.01% BSA, 0.01% Triton X-100). For negative control, 5 uL of assay buffer was added instead. The plate was incubated at room temperature for 10 min. 5 uL of peptide solution containing ULight-4E-BP1 peptide (final concentrations 50 nM) in the assay buffer was subsequently added into each well to initiate the reaction. By incubation at room temperature for 1 hour, 10 uL of 2 nM Eu-anti-phospho-4E BP1 antibody was then added for detection. After one hour incubation at room temperature, all samples were subjected to read the TR-FRET signal on Envision with excitation at 340 nm and emission fluorescence at 615 nm and 665 nm. IC50 values were then calculated by plotting dose-response curves and then using the XLfit application in Excel software.

CDK2/CycA2 = CDK2/CycA2 (Homo sapiens, UniProt P24941); assay: In vitro kinase TR-FRET assay CDK2/CycA2; settings: enzyme 3 nM, ATP 27 μM, read-out: CDK2 cyclinA2 activity assay: IC50
Experimental: as §1, §2

CDK2/CycE1 = CDK2/CycE1 (Homo sapiens, UniProt P24941); assay: In vitro kinase TR-FRET assay CDK2/CycE1; settings: enzyme 0.6 nM, ATP 82 μM, read-out: CDK2 cyclinE1 activity assay: IC50
Experimental: as §1, §2

CDK1/cyclinB = CDK1/cyclinB (Homo sapiens, UniProt P06493); assay: In vitro kinase TR-FRET assay CDK1/cyclinB; settings: enzyme 0.3 nM, ATP 56 μM
CDK1/cyclinB, sequence (P06493 whole entry): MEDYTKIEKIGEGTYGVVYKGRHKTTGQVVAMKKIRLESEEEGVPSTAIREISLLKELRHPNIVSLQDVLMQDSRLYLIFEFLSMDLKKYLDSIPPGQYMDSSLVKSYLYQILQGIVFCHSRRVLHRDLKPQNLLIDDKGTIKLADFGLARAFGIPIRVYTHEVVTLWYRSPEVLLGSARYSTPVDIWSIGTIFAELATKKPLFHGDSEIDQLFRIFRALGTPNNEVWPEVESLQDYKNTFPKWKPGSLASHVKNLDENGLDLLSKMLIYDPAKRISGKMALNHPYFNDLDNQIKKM
CDK1/cyclinB, sequence (P14635 whole entry partner): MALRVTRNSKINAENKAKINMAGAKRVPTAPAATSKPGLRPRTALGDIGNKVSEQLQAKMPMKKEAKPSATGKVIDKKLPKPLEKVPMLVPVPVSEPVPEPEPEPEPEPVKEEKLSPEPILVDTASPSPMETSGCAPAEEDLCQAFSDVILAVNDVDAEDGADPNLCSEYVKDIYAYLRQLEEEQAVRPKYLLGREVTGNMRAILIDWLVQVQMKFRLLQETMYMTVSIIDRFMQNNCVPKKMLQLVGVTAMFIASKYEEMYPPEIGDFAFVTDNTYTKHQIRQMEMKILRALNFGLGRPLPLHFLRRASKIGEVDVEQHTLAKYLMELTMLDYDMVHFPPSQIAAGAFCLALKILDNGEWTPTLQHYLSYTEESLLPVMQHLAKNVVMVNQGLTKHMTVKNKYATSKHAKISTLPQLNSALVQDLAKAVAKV
Experimental: as §1, §2

GSK3β, sequence (P49841 whole entry, species assumed): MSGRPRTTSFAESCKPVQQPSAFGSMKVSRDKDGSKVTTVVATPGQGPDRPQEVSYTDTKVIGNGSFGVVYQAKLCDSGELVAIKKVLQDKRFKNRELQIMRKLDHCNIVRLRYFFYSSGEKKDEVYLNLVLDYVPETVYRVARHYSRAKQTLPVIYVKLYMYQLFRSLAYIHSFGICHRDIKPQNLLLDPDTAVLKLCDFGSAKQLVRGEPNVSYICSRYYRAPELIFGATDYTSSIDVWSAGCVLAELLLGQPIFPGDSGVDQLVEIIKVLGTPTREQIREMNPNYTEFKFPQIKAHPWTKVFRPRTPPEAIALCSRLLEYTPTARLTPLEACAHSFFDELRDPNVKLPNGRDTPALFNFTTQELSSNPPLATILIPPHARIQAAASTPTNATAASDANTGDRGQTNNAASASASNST

| SMILES | IC50 (GSK3β) [nM] | IC50 (CDK2/CycA2) [nM] | IC50 (CDK2/CycE1) [nM] | IC50 (CDK1/cyclinB) [nM] |
| --- | --- | --- | --- | --- |
| CC(C)NC(=O)O[C@@H]1CC[C@H](c2cc(Nc3ccc4c(c3)C(=O)NC4)n[nH]2)C1 [Example 20, (1R,3S)-3-{5-[(3-oxo-2,3-dihydro-1H-isoindol-5-yl)amino]-2H-pyrazol-3-yl}cyclopentyl (prop-2-ylamino)methanoate] | > 1000 | < 50 | < 50 | 500 to 1000 |
| CC(C)NC(=O)O[C@@H]1CC[C@H](c2cc(Nc3ccc4c(c3)S(=O)(=O)CCC4)n[nH]2)C1 [Example 39, (1R,3S)-3-(3-((1,1-dioxidothiochroman-7-yl)amino)-1H-pyrazol-5-yl)cyclopentyl isopropylcarbamate] | 50 to 500 | < 50 | < 50 | 50 to 500 |
| CC(C)NC(=O)O[C@@H]1CC[C@H](c2cc(Nc3cccc4c3N(C)S(=O)(=O)C4)n[nH]2)C1 [Example 51, (1R,3S)-3-{5-[(1-methyl-2,2-dioxo-1,3-dihydro-2λ^6-benzo[2,1-c][1,2]thiazol-7-yl)amino]-2H-pyrazol-3-yl}cyclopentyl (prop-2-ylamino)methanoate] | > 1000 | 500 to 1000 | 50 to 500 | 50 to 500 |
| CC(C)NC(=O)O[C@@H]1CC[C@H](c2cc(Nc3cccc4c3CCS(=O)(=O)N4)n[nH]2)C1 [Example 53, (1R,3S)-3-(3-((2,2-dioxido-3,4-dihydro-1H-benzo[c][1,2]thiazin-5-yl)amino)-1H-pyrazol-5-yl)cyclopentyl isopropylcarbamate] | > 1000 | < 50 | < 50 | 500 to 1000 |
| CC(C)NC(=O)O[C@@H]1CC[C@H](c2cc(Nc3cc4c(cn3)CCS4(=O)=O)n[nH]2)C1 [Example 72, (1R,3S)-3-{5-[(1,1-dioxo-2,3-dihydro-1λ^6-thieno[3,2-c]pyridin-6-yl)amino]-1H-pyrazol-3-yl}cyclopentyl (prop-2-ylamino)methanoate] | > 1000 | < 50 | < 50 | < 50 |

Continued, values first:

| IC50 (GSK3β) [nM] | IC50 (CDK2/CycA2) [nM] | IC50 (CDK2/CycE1) [nM] | IC50 (CDK1/cyclinB) [nM] | SMILES |
| --- | --- | --- | --- | --- |
| 50 to 500 | < 50 | < 50 | 500 to 1000 | CC(C)NC(=O)O[C@@H]1CC[C@H](c2cc(Nc3ccc4c(c3)N(C)C(=O)NS4(=O)=O)n[nH]2)C1 [Example 18, (1R,3S)-3-(3-((4-methyl-1,1-dioxido-3-oxo-3,4-dihydro-2H-benzo[e][1,2,4]thiadiazin-6-yl)amino)-1H-pyrazol-5-yl)cyclopentyl isopropylcarbamate] |
| 50 to 500 | < 50 | < 50 | 50 to 500 | CC(C)NC(=O)O[C@@H]1CC[C@H](c2cc(Nc3ccc4c(c3)C(C)(C)NS4(=O)=O)n[nH]2)C1 [Example 13, (1R,3S)-3-(3-((3,3-dimethyl-1,1-dioxido-2,3-dihydrobenzo[d]isothiazol-5-yl)amino)-1H-pyrazol-5-yl)cyclopentyl isopropylcarbamate] |
| > 1000 | < 50 | < 50 | > 1000 | CC(C)NC(=O)O[C@@H]1CC[C@H](c2cc(Nc3cc4c(cc3F)S(=O)(=O)CC4)n[nH]2)C1 [Example 54, (1R,3S)-3-(3-((6-fluoro-1,1-dioxido-2,3-dihydrobenzo[b]thiophen-5-yl)amino)-1H-pyrazol-5-yl)cyclopentyl isopropylcarbamate] |
| > 1000 | 50 to 500 | 50 to 500 | > 1000 | Cc1c(Nc2ccc3c(c2)CS(=O)(=O)C3)n[nH]c1[C@H]1CC[C@@H](OC(=O)NC(C)C)C1 [Example 43, (1R,3S)-3-{5-[(2,2-dioxo-1,3-dihydro-2λ^6-benzo[c]thiophen-5-yl)amino]-4-methyl-2H-pyrazol-3-yl}cyclopentyl (prop-2-ylamino)methanoate] |
| > 1000 | < 50 | < 50 | 50 to 500 | CC(C)NC(=O)O[C@@H]1CC[C@H](c2[nH]nc(Nc3ccc4c(c3)CNS4(=O)=O)c2F)C1 [Example 14, (1R,3S)-3-(3-((1,1-dioxido-2,3-dihydrobenzo[d]isothiazol-5-yl)amino)-4-fluoro-1H-pyrazol-5-yl)cyclopentyl isopropylcarbamate] |
